# Read-outs that look alike come from different tables or passages of the source.
# Key:
# [1] = biological target: T1, human serum albumin (HSA) (Homo sapiens, UniProt P02768); assay: Fluorescence spectroscopy of HSA (Trp fluorescence quenching/enhancement; KD by DynaFit); format: binding; conditions: for change of HSA fluorescence with increasing ligand concentration: λEX = 295 nm, T = 310.15 K, pH 7.4, HSA 5 μM; for Kd: HSA 5 μM, pH 7.4, read-out: KD (Fluor.)
# T1 construct: purchased Sigma-Aldrich; host or cells: rice
# T1 sequence (P02768 25-609): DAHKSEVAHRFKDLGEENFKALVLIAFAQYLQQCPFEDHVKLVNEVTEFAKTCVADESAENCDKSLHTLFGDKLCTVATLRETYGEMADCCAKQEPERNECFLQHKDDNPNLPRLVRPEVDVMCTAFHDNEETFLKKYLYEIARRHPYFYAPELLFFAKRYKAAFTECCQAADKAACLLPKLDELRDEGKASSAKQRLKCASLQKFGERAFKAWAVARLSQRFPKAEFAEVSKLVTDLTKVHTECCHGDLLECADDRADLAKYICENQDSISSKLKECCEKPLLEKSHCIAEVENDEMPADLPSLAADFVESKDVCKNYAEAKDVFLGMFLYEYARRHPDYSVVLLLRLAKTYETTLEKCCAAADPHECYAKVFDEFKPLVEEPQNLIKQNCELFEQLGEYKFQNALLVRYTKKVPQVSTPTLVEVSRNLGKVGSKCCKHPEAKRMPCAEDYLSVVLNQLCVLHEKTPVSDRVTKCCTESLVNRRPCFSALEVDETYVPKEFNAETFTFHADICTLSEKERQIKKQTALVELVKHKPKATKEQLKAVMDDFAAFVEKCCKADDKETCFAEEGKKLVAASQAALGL
# Method: To find out if there was any interaction when both studied compounds were present, we performed an analysis of ternary mixtures, [(HSA + Q) + R] and [(HSA + R) + Q], when the first-added compound was pre-incubated with HSA at a constant concentration and the second compound was added at variable concentrations. The concentrations of the first-added drug in the ternary system was 5 μM for Q and 400 μM for R. These concentrations were chosen as an approximate half-saturation point for both compounds.
# Therefore, as in previously published research [14], we used the DynaFit software script. Data input consisted of [Ltotal] (total ligand concentrations) for the variable reactant concentrations, [Ptotal] (total protein concentration) for the fixed reactant concentration, and F/F0 for the experimentally observed value. The software calculates [Lfree] (free ligand concentration), creates a semilogarithmic plot of F/F0 vs. [Lfree] and determines the KD value by finding the halfway point in the sigmoid-shaped curve.
# Fluorescence spectra were measured in triplicates on a FluoroMax 4 spectrofluorimeter (Horiba Jobin Yvon Scientific, Irvine, CA, USA), equipped with a 1.0 cm path length quartz cell. The slit widths for the excitation and emission were 3.0 nm for all measurements. […] Samples were incubated for 2 min. Buffer background was subtracted from the raw spectra. Fluorescence intensities were corrected for the absorption of excitation light and re-absorption of emitted light to decrease the inner filter using the following relationship [13]:(2) Fcor=Fobs×10^(Aex+Aem)/2 where Fcor and Fobs are the corrected and observed fluorescence intensities, respectively. Aex and Aem are the absorbance values of the experimental solution (including all ligands) at excitation and emission wavelengths, respectively. Corrected spectra were smoothed to minimize the influence of the signal noise.
# Fluorescence spectral data after correction and smoothing were used to calculate the dissociation constant (KD) for all studied systems. For evaluation and logarithmic plot fitting we used DynaFit software (version 4.0, BioKin Ltd., Watertown, MA, USA, http://www.biokin.com/dynafit/index.html) using a custom-written script.
# [2] = biological target: T2, bovine serum albumin (BSA) (Bos taurus, UniProt P02769); conditions: λEX = 295 nm, T = 310.15 K, pH 7.4, BSA 5 μM
# T2 sequence (P02769 25-607): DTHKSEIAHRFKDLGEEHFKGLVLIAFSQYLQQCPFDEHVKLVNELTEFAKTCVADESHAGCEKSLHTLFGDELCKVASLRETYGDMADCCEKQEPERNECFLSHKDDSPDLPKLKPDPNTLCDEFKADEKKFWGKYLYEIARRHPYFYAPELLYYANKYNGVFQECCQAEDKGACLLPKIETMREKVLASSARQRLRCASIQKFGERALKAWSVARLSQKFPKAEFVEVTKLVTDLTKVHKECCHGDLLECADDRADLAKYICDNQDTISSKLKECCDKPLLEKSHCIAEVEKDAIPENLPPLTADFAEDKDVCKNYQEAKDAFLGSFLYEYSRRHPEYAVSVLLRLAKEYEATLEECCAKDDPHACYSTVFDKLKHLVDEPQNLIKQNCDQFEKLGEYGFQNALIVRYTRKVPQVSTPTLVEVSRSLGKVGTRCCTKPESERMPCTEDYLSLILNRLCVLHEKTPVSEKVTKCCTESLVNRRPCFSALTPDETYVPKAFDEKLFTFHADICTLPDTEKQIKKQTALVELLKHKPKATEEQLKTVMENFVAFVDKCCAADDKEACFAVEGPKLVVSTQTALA
# Method: Conditions: T = 310.15 K, pH = 7.4.
# Conditions: λEX = 295 nm, T = 310.15 K, pH = 7.4. The HSA and BSA concentrations were 5 μM; FA concentrations were 0.52, 1.04, 2.08, 4.16, 8.33, 16.66, 33.33, 66.66 and 133.33 μM. R concentrations were 15.6, 31.25, 62.5, 125, 250, 500, 1000, 2000 and 4000 μM.
# Fluorescence spectra were measured in triplicates on a FluoroMax 4 spectrofluorimeter (Horiba Jobin Yvon Scientific, Irvine, CA, USA), equipped with a 1.0 cm path length quartz cell. The slit widths for the excitation and emission were 3.0 nm for all measurements. The temperatures used for the measurements were 298.15 K, 303.15 K and 310.15 K, respectively. Samples were incubated for 2 min. Buffer background was subtracted from the raw spectra. Fluorescence intensities were corrected for the absorption of excitation light and re-absorption of emitted light to decrease the inner filter using the following relationship [13]:(2) Fcor=Fobs×10^(Aex+Aem)/2 where Fcor and Fobs are the corrected and observed fluorescence intensities, respectively. Aex and Aem are the absorbance values of the experimental solution (including all ligands) at excitation and emission wavelengths, respectively. Corrected spectra were smoothed to minimize the influence of the signal noise.
# [3] = test system: HSA; conditions: cited from earlier work; for Kd: Sudlow's Site 1
# [4] = biological target: T2, bovine serum albumin (BSA); conditions: Site 1 of BSA; read-out: dissociation constant KD; cited from earlier work
# [5] = test system: human serum proteins; conditions: concentration range 0.01 to 10 mg/L, equilibrium dialysis; cited from earlier work
# [6] = biological target: T1, human serum albumin (HSA); assay: Microscale thermophoresis (MST) with RED-NHS labeled HSA; format: binding
# Method: We performed a full set of MST measurements for mixtures where R was the compound with the concentration gradient.
# Figure 9 The MST binding curves for all studied systems. Conditions: T = 297.05 K, pH = 7.4. The concentration of HSA was 20 nM, the starting concentrations of R were 7.15 mM, c(Q) in the ternary system was 20 nM.
# For [(HSA + Q) + R] system it was possible to additionally derive KD value from the increase in fluorescence in the initial capillary scans. The mechanism of this feature is the same as in the regular fluorescence experiment (Figure 5).
# The MST measurements were performed on Monolith NT.115 (NanoTemper Technologies, GmbH, Germany) instrument using Premium capillaries. HSA sample was labeled using RED-NHS protein labeling kit. Assay buffer was PBS with added 0.1% Pluronic F-127 as the surface agent. Ligand samples were dissolved in DMSO and then diluted with the assay buffer to the final concentration. Serial dilutions of the ligand were prepared, the protein was then added and the mixtures were incubated for 10 min at laboratory temperature. Each experiment was performed in three parallel measurements. The results were evaluated in the instrument software (MO.Control v1.6, NanoTemper Technologies, GmbH, Germany).
smiles,measurement,setting,value
CC(=O)O[C@H]1C[C@@]2(C)[C@@H](C[C@@H](O)[C@H]3[C@@]4(C)CC[C@@H](O)[C@@H](C)[C@@H]4CC[C@@]32C)/C1=C(\CCC=C(C)C)C(=O)O [fusidic acid],change of HSA fluorescence with increasing ligand concentration,[1],remains more or less constant
same,change of BSA fluorescence with increasing ligand concentration,[2],decrease
O=c1c(O)c(-c2ccc(O)c(O)c2)oc2cc(O)cc(O)c12 [quercetin],Kd,[3]; ref 13,6.1 µM
same,Kd,[3]; ref 14,6.48 µM
same,bound to HSA,[3],99%
same,Kd,[1]; binary system HSA + ligand,2.28 ± 0.61 µM
same,Kd,"[1]; ternary system [(HSA + R) + Q]: HSA pre-incubated with 400 μM R, Q varied",34.7 ± 15.1 µM
CCOC(=O)[C@H](CCc1ccccc1)N[C@@H](C)C(=O)N1[C@H](C(=O)O)C[C@@H]2CCC[C@@H]21 [ramipril],Kd,[4],28.5 µM
same,KD for binding of R compared with KD for Q,[1]; HSA,more than hundredfold larger
same,Kd,[1]; binary system HSA + ligand,1220 ± 677 µM
same,Kd,"[1]; ternary system [(HSA + Q) + R]: HSA pre-incubated with 5 μM Q, R varied",593 ± 90.6 µM
same,change of HSA fluorescence with increasing ligand concentration,[1],increases
same,bound to human serum proteins,[5],73%
same,Kd,"[6]; binary system HSA + R, T = 297.05 K, pH 7.4, HSA 20 nM, read-out: KD (MST)",775 ± 75.3 µM
same,Kd,"[6]; ternary system [(HSA + Q) + R], c(Q) 20 nM, HSA 20 nM, T = 297.05 K, pH 7.4, read-out: KD (MST)",112 ± 24.6 µM
same,Kd,"[6]; ternary system [(HSA + Q) + R], from increase in fluorescence in the initial capillary scans, c(Q) 20 nM, HSA 20 nM, read-out: KD (MST Fluorescence)",168 ± 29.8 µM
C[C@H](N[C@@H](CCc1ccccc1)C(=O)O)C(=O)N1[C@H](C(=O)O)C[C@@H]2CCC[C@@H]21 [ramiprilat],bound to human serum proteins,[5],56%

# Source: paper PMC7036995 (Molecules, 2020)
